Experimental data taken from ChEMBL document CHEMBL4665844, “HDAC-Bax Multiple Ligands Enhance Bax-Dependent Apoptosis in HeLa Cells” (J Med Chem, 2020).
Activity calls are given as the source filed them. The rule behind the calls is not given here.

How the values were obtained:
Histone deacetylase = assay: Inhibition of HDAC in human HeLa nuclear extract using Boc-Lys(acetyl)-AMC or Boc-Lys (triflouroacetyl)-AMC as substrate preincubated for 5 mins followed by substrate addition and measured after 30 mins by fluorescence assay; assay type: subcellular, Nucleus
Apoptosis regulator BAX [1] = molecular target: T1, Apoptosis regulator BAX (Homo sapiens, UniProt Q07812); assay: Binding affinity to recombinant human full length His-tagged BAX expressed in Escherichia coli BL21 (DE3) cells preincubated for 30 min followed by FITC-BIM addition and measured after 20 mins by fluorescence polarization assay
T1 sequence (Q07812 whole entry): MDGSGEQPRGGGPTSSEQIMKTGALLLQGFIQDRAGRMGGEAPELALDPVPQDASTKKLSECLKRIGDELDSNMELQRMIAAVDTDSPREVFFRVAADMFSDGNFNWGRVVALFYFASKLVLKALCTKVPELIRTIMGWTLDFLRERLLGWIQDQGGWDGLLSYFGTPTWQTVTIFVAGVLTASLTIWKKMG

L02 = assay: Cytotoxicity against human L02 cells assessed as reduction in cell viability after 48 hrs by MTT assay; assay type: ADME, cell-based; conditions: L02, 48 h
HeLa [2] = assay: Antiproliferative activity against siRNA-induced BAX knock down human HeLa cells after 48 hrs by MTT assay; assay type: functional, cell-based
HeLa [3] = assay: induction of apoptosis in siRNA-induced BAX knock down human HeLa cells at 3 uM after 48 hr by annexin V FITC and propidium iodide staining based flow cytometric analysis; assay type: functional
HeLa [4] = assay: Induction of mitochondrial membrane potential loss in human HeLa cells after 24 hrs by TMRE staining based fluorescence assay; assay type: functional, cell-based; conditions: dose microM 1-3, time 24.0 hrs
HeLa [5] = assay: Induction of apoptosis in human HeLA cells at 0.3 to 1 uM after 48 hr by annexin V FITC and propidium iodide staining based flow cytometric analysis; assay type: functional, cell-based; conditions: dose microM 0.3-1, time 48.0 hrs
HeLa [6] = assay: Induction of apoptosis in human HeLA cells at 3 uM after 48 hr by annexin V FITC and propidium iodide staining based flow cytometric analysis; assay type: functional
HeLa [7] = assay: Induction of apoptosis in human HeLA cells at 1 uM after 48 hr by laser confocal microscopic based TUNEL assay; assay type: functional, cell-based
HeLa [8] = assay: Induction of apoptosis in human HeLa cells assessed as formation of apoptotic bodies at 1 uM after 6 to 36 hrs by fluorescence microscopic method; assay type: functional, cell-based; conditions: time hrs 6-36
HeLa [9] = assay: Induction of apoptosis in human HeLa cells assessed as membrane blebbing at 1 uM after 6 to 36 hrs by fluorescence microscopic method; assay type: functional, cell-based; conditions: time hrs 6-36
HeLa [10] = assay: Induction of apoptosis in human HeLa cells assessed as cellular shrinkage at 1 uM after 6 to 36 hrs by fluorescence microscopic method; assay type: functional, cell-based; conditions: time hrs 6-36
HeLa [11] = assay: Potency index, ratio of IC50 for SAHA to test compound IC50 for antiproliferation activity against human HeLa cells; assay type: functional
HeLa [12] = assay: Potency index, ratio of IC50 for BSTA1 to test compound IC50 for antiproliferation activity against human HeLa cells; assay type: functional
Apoptosis regulator BAX [13] = molecular target: T1, Apoptosis regulator BAX; assay: Activation of BAX in human HeLa cells assessed as confirmation activation at Bax6A7 after 6 to 12 hrs by immunoprecipitation assay; assay type: cell-based; conditions: filed as activator, dose microM 0.3-3, time hrs 6-12
HeLa [14] = assay: Up regulation of BAX protein in human HeLa cells at 0.3 to 3 uM after 6 to 12 hrs by Western blot analysis; assay type: functional, cell-based; conditions: dose microM 0.3-3, time hrs 6-12
Histone deacetylase 8 = molecular target: T2, Histone deacetylase 8 (Homo sapiens, UniProt Q9BY41); assay: Inhibition of HDAC8 (unknown origin) in using Boc-Lys(acetyl)-AMC or Boc-Lys (triflouroacetyl)-AMC as substrate preincubated for 5 mins followed by substrate addition and measured after 30 mins by fluorescence assay
T2 sequence (Q9BY41 whole entry): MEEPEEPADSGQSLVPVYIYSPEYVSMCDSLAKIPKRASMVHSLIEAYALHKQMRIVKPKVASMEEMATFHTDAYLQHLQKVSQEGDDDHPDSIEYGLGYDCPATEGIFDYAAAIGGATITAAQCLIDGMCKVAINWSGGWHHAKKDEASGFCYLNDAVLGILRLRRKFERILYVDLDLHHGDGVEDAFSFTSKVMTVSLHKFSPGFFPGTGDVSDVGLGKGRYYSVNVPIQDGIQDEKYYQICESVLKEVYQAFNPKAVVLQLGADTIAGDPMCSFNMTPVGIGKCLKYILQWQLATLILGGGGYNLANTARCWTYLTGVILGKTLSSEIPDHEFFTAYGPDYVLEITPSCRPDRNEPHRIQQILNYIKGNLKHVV

Histone deacetylase 2 = Histone deacetylase 2 (Homo sapiens, UniProt Q92769); assay: Inhibition of HDAC2 (unknown origin) in using Boc-Lys(acetyl)-AMC or Boc-Lys (triflouroacetyl)-AMC as substrate preincubated for 5 mins followed by substrate addition and measured after 30 mins by fluorescence assay
Sequence of Histone deacetylase 2 (Q92769 whole entry): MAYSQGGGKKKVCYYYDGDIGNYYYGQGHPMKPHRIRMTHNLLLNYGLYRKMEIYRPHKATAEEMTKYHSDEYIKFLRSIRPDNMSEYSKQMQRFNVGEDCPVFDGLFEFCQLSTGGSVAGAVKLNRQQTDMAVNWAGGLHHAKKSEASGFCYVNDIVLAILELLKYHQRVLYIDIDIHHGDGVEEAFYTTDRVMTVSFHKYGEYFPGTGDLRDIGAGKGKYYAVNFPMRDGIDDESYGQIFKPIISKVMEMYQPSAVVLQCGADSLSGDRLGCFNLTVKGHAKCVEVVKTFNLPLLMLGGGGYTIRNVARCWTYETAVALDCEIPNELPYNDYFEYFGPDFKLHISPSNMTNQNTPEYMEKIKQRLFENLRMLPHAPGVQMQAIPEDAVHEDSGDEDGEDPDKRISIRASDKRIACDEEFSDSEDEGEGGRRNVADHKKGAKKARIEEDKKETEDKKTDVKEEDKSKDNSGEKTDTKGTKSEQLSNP

Histone deacetylase 1 = Histone deacetylase 1 (Homo sapiens, UniProt Q13547); assay: Inhibition of HDAC1 (unknown origin) in using Boc-Lys(acetyl)-AMC or Boc-Lys (triflouroacetyl)-AMC as substrate preincubated for 5 mins followed by substrate addition and measured after 30 mins by fluorescence assay
Sequence of Histone deacetylase 1 (Q13547 whole entry): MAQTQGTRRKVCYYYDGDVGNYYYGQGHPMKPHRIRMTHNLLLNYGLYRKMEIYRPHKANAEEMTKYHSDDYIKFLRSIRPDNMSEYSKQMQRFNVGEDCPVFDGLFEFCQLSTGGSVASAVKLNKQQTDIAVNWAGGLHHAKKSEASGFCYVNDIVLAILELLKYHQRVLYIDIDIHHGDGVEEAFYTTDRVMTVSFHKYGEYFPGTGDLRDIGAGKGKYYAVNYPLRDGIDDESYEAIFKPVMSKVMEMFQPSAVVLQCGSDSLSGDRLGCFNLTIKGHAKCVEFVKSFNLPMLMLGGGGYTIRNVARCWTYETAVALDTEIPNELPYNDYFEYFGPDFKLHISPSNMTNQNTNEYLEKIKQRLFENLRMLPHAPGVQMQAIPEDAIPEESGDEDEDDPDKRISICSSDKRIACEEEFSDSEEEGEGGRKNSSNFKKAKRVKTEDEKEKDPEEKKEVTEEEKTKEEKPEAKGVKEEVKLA

Bcl-2-like protein 1 = Bcl-2-like protein 1 (Homo sapiens, UniProt Q07817); assay: Binding affinity to full length His-tagged Bcl-xl (unknown origin) preincubated for 30 min followed by 5-FAM Bid-BH3 addition and measured after 20 mins by fluorescence polarization assay
Sequence of Bcl-2-like protein 1 (Q07817 whole entry): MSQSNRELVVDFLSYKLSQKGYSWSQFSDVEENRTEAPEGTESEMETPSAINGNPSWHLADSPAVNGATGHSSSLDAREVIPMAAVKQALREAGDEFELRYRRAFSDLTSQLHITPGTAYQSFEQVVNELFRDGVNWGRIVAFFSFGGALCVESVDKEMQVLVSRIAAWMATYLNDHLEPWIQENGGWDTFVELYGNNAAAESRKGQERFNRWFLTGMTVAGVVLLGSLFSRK

[15] = molecular target: Induced myeloid leukemia cell differentiation protein Mcl-1 (Homo sapiens, UniProt Q07820); assay: Binding affinity to full length His-tagged Mcl1 (unknown origin) preincubated for 30 min followed by 5-FAM Bid-BH3 addition and measured after 20 mins by fluorescence polarization assay
Sequence of Induced myeloid leukemia cell differentiation protein Mcl-1 (Q07820 whole entry): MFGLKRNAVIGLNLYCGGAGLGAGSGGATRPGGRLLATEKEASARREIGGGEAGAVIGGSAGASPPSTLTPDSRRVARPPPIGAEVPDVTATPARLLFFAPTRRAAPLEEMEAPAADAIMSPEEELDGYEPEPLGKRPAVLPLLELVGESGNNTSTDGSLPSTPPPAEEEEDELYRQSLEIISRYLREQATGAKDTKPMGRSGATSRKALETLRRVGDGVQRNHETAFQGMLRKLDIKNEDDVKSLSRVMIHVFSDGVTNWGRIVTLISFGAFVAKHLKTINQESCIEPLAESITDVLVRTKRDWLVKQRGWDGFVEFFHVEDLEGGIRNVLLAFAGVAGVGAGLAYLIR

[16] = molecular target: Apoptosis regulator Bcl-2 (Homo sapiens, UniProt P10415); assay: Binding affinity to full length His-tagged Bcl2 (unknown origin) preincubated for 30 min followed by 5-FAM Bid-BH3 addition and measured after 20 mins by fluorescence polarization assay
Sequence of Apoptosis regulator Bcl-2 (P10415 whole entry): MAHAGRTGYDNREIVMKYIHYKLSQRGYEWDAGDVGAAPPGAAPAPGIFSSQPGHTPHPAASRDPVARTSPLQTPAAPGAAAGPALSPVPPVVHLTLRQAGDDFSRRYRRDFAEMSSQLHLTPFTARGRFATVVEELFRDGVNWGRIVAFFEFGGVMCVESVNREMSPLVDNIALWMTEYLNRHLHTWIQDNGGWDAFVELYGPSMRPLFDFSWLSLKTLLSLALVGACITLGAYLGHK

HeLa [17] = assay: Antiproliferative activity against human HeLa cells assessed as reduction in cell viability after 48 hrs by MTT assay; assay type: functional, cell-based
HeLa [18] = assay: induction of apoptosis in siRNA-induced BAX knock down human HeLa cells at 0.3 to 3 uM after 48 hr by annexin V FITC and propidium iodide staining based flow cytometric analysis; assay type: functional, cell-based; conditions: dose microM 0.3-3, time 48.0 hrs
HeLa [19] = assay: Induction of mitochondrial membrane potential loss in human HeLa cells at 1 to 3 uM after 24 hrs by TMRE staining based fluorescence assay; assay type: functional, cell-based; conditions: dose microM 1-3, time 24.0 hrs
HeLa [20] = assay: Synergistic antiproliferative activity against human HeLa cells assessed as assessed as reduction in cell viability after 48 hrs in presence of SAHA by MTT assay; assay type: functional, cell-based

`O=C(CCCCCCOc1ccc(-c2csc(N3N=C(c4ccccc4)/C(=N/Nc4nccs4)C3=O)n2)cc1)NO` was tested, and the IC50 (Histone deacetylase) was 40.8 nM and the EC50 (Apoptosis regulator BAX [1]) was 856 nM.

`O=C(/C=C/c1ccc(CNC(=O)c2ccc(-c3csc(N4N=C(c5ccccc5)/C(=N/Nc5nccs5)C4=O)n3)cc2)cc1)NO` gave an IC50 (Histone deacetylase) of 1341.5 nM and an EC50 (Apoptosis regulator BAX [1]) of 2220 nM.

`O=C(CCCCCOc1ccc(-c2csc(N3N=C(c4ccccc4)/C(=N/Nc4nccs4)C3=O)n2)cc1)NO` was tested, and the IC50 (Histone deacetylase) was 75.8 nM and the EC50 (Apoptosis regulator BAX [1]) was 925 nM.

For `O=C(NO)c1ccc(COc2ccc(-c3csc(N4N=C(c5ccccc5)/C(=N/Nc5nccs5)C4=O)n3)cc2)cc1`, the IC50 (Histone deacetylase) was 85 nM and the EC50 (Apoptosis regulator BAX [1]) was 538 nM.

In the case of `O=C(/C=C/c1ccc(COc2ccc(-c3csc(N4N=C(c5ccccc5)/C(=N/Nc5nccs5)C4=O)n3)cc2)cc1)NO`, the IC50 (Histone deacetylase) is reported as 243.7 nM and the EC50 (Apoptosis regulator BAX [1]) is reported as 992 nM.

With `O=C(O)c1ccc(-c2csc(N3N=C(c4ccccc4)/C(=N/Nc4nccs4)C3=O)n2)cc1` the IC50 (Histone deacetylase) was over 10000 nM and the EC50 (Apoptosis regulator BAX [1]) was 704 nM.

With `O=C(CCCCCCNC(=O)c1ccc(-c2csc(N3N=C(c4ccccc4)/C(=N/Nc4nccs4)C3=O)n2)cc1)NO` the IC50 (Histone deacetylase) was 98.8 nM and the EC50 (Apoptosis regulator BAX [1]) was 1140 nM.

In the case of `O=C(CCCCCNC(=O)c1ccc(-c2csc(N3N=C(c4ccccc4)/C(=N/Nc4nccs4)C3=O)n2)cc1)NO`, the IC50 (Histone deacetylase) is reported as 87.5 nM and the EC50 (Apoptosis regulator BAX [1]) is reported as 809 nM.

For `O=C(NO)c1ccc(CNC(=O)c2ccc(-c3csc(N4N=C(c5ccccc5)/C(=N/Nc5nccs5)C4=O)n3)cc2)cc1`, the IC50 (L02) was 65200 nM, the IC50 (HeLa [2]) was 7550 nM and the Activity (HeLa [3]) was 14.8%. For the same molecule, the Activity (HeLa [4]) was “Dose-dependent effect”, the Activity (HeLa [5]) was “Active” and the Activity (HeLa [6]) was 60%. For the same molecule, the Activity (HeLa [7]) was “Active”, the Activity (HeLa [8]) was “Active” and the Activity (HeLa [9]) was “Active”. The Activity (HeLa [10]) was “Active”, the “Ratio IC50” value (HeLa [11]) was 15 and the “Ratio IC50” value (HeLa [12]) was 3. For the same molecule, the Activity (Apoptosis regulator BAX [13]) was “Dose-dependent effect”, the Activity (HeLa [14]) was “Active” and the IC50 (Histone deacetylase 8) was 1090 nM. For the same molecule, the IC50 (Histone deacetylase 2) was 198 nM, the IC50 (Histone deacetylase 1) was 66 nM and the EC50 (Bcl-2-like protein 1) was over 10000 nM. The EC50 [15] was over 10000 nM, the EC50 [16] was over 10000 nM and the IC50 (Histone deacetylase) was 62.8 nM. For the same molecule, the EC50 (Apoptosis regulator BAX [1]) was 393 nM and the IC50 (HeLa [17]) was 860 nM.

`O=C(CCCCCCC(=O)Nc1ccccc1)NO` [VORINOSTAT] was tested, and the Activity (HeLa [18]) was “inactive”, the Activity (HeLa [19]) was “Active” and the Activity (HeLa [6]) was 47.1%. The Activity (HeLa [14]) was “Active” and the EC50 (Apoptosis regulator BAX [1]) was over 10000 nM.

In the case of `O=C(CCCCOc1ccc(-c2csc(N3N=C(c4ccccc4)/C(=N/Nc4nccs4)C3=O)n2)cc1)NO`, the IC50 (Histone deacetylase) is reported as 118.5 nM and the EC50 (Apoptosis regulator BAX [1]) is reported as 967 nM.

In the case of `O=C1/C(=N\Nc2nccs2)C(c2ccccc2)=NN1c1nc(-c2ccccc2)cs1`, the IC50 (L02) is reported as 54200 nM, the IC50 (HeLa [2]) is reported as over 20000 nM and the Activity (HeLa [18]) is reported as “inactive”. For the same molecule, the Activity (HeLa [19]) was “Active”, the Activity (HeLa [6]) was 19.2% and the EC50 (Bcl-2-like protein 1) was over 10000 nM. It also gave an EC50 [15] of over 10000 nM, an EC50 [16] of over 10000 nM and an IC50 (Histone deacetylase) of over 10000 nM. For the same molecule, the IC50 (HeLa [20]) was 810 nM and the IC50 (HeLa [17]) was 11500 nM.

`O=C(NO)c1ccc(-c2csc(N3N=C(c4ccccc4)/C(=N/Nc4nccs4)C3=O)n2)cc1` showed an IC50 (Histone deacetylase) of 577.4 nM and an EC50 (Apoptosis regulator BAX [1]) of 874 nM.

With `O=C(CCCOc1ccc(-c2csc(N3N=C(c4ccccc4)/C(=N/Nc4nccs4)C3=O)n2)cc1)NO` the IC50 (Histone deacetylase) was 674.8 nM and the EC50 (Apoptosis regulator BAX [1]) was 725 nM.

`O=C(CCCCNC(=O)c1ccc(-c2csc(N3N=C(c4ccccc4)/C(=N/Nc4nccs4)C3=O)n2)cc1)NO` was tested, and the IC50 (Histone deacetylase) was 207.4 nM and the EC50 (Apoptosis regulator BAX [1]) was 719 nM.

With `O=C(CCCCCCCOc1ccc(-c2csc(N3N=C(c4ccccc4)/C(=N/Nc4nccs4)C3=O)n2)cc1)NO` the IC50 (Histone deacetylase) was 135.2 nM and the EC50 (Apoptosis regulator BAX [1]) was 532 nM.
